Data published in patent US20210052566A1, “METHODS FOR TREATING HEPATITIS B VIRUS (HBV) INFECTION” (INSERM (INSTITUT NATIONAL DE LA SANTÉ ET DE LA RECHERCHE …, priority 2018, published 2021).

What was measured:
[1] = system: HDV genotype 1; experiment: Hepatitis delta virus replication in infected dHepaRG cells (intracellular HDV RNA, RTqPCR); assay type: cell-based; settings: HDV MOI 10 vge/cell, 10 microM three times post-infection
Protocol: (§1) FIG. 1. Experimental outlines. Treatment schemes: (a) Treatments in pre-infection: dHepaRG cells were treated for 24 h (at day −1) with 100 nM of PreS1 peptide (PreS1-pep) or 10 μM of 1C8, or untreated (NT). At day 0, cells were inoculated with HBV (MOI=250) or with HDV (MOI=25) in the presence of drugs for 24 h. For the tenofovir control (TDF at 10 μM), cells were treated at day 1 and 4 post-infection. Supernatant and cells were harvested at day 7 post-infection. (b) Treatments in post-infection: dHepaRG cells were inoculated with HBV (MOI=250) or with HDV (MOI=25). At days 4, 7 and 9 post infection, cells were treated with TDF 10 μM, lamivudine (3TC) at 10 μM, 1C8 10 μM or untreated (NT). Supernatant and cells were harvested at day 11 postinfection.
FIG. 5. […] B) HBs and HBe secreted antigens in supernatant were quantified by ELISA, whereas HBV DNA contained in virions was quantified by qPCR after viral nucleic acid extraction from supernatant. C) Intracellular HDV RNA was quantified by RTqPCR after total RNA extraction from cells. D) Viability was monitored in 1C8-treated (or control treated; puromycin is a positive toxic molecule) cells by CellTiter-Glo® luminescent cell viability assay. […] Statistics were done by two-tailed Mann-Whitney test, with following significativity: *P<0.05, **P<0.01, ***P<0.001, ****P<0.0001. nd=not determined

[2] = system: HBV genotype C; experiment: De novo establishment of HBV infection/cccDNA in naive dHepaRG, genotype C (treatment before and during inoculation); assay type: cell-based, Hepatitis B virus
Protocol: as §1, with “Supernatant and cells were harvested at day 11 postinfection.” left out
FIG. 8. […] B) HBs and HBe secreted antigens in supernatant were quantified by ELISA, whereas HBV DNA contained in virions was quantified by qPCR after viral nucleic acid extraction from supernatant. […] Statistics were done by two-tailed Mann-Whitney test, with following significativity: *P<0.05, **P<0.01, ***P<0.001, ****P<0.0001. nd=not determined […]
From cell culture supernatants, secreted HBe and HBs antigens were quantified by ELISA, using a chemiluminescence immunoassay kit (Autobio, China) following manufacturer's instructions. […]
A HBV standard was used for quantification of extracellular viral DNA and RNA. […] CccDNA was normalized to β-Globin quantification. […]

[3] = system: HDV genotype 1; experiment: Establishment of HDV infection in dHepaRG (treatment 24 h before and during inoculation); assay type: cell-based, hepatitis delta virus; settings: 1C8 10 microM, Entry Inh. 100 nM
Protocol: as §1
FIG. 7. Effect of 1C8 on de novo establishment of ccDNA in dHepaRG (genotype D). […] B) HBs and HBe secreted antigens in supernatant were quantiUied by ELISA, whereas HBV DNA contained in virions was quantified by qPCR after viral nucleic acid extraction from supernatant. […] Statistics were done by two-tailed Mann-Whitney test, with following signiUicativity: *P<0.05, **P<0.01, ***P<0.001, ****P<0.0001. nd=not determined.

Cn1ccc(=O)c(C(=O)Nc2nsc3ccc([N+](=O)[O-])cc23)c1 [1C8, 4-pyridinonebenzisothiazole carboxamide]
inhibition of replication of hepatitis delta virus [1]: not capable to inhibit | inhibition at 10 µM ([2]; Hepatitis B virus, dHepaRG treated before and during HBV inoculation): 70% | other viral markers (intracellular RNAs, HBeAg, HBsAg), genotype C ([2]; dHepaRG treated before and during inoculation, 10 microM): also reduced | block of the establishment of HDV infections [3]: unable to block
